From patent publication US8859503B2, “Methods and compositions targeting viral and cellular ITAM motifs, and use of same in identifying compounds with therapeutic activity” (priority 2005, dated 2014) come the findings set out here.

“Also recorded” adds a separate entry of the source. Ends that are not written are not given here. * marks the point of attachment. Biotin = O=C1N[C@H]2[C@H](CS[C@H]2CCCCC(=O)*)N1

The target in one series is T1, Syk (Mus musculus, UniProt P48025).
T1 construct: Whole cell lyastes of Bal-17 B cells (3×10^7) were used; endogenous in cells; host or cells: Bal-17 B cells (whole cell lysate)
The series is described as follows: Peptide:Syk binding assay (biotin-peptide pull-down from Bal-17 B cell lysates). The following applies: peptide 50 μM; Bal-17 whole cell lysates; n=3. On the procedure:
Whole cell lyastes of Bal-17 B cells (3×10^7) were used for quantification of ITAM peptide interactions. Equivalent cell lysates were mixed with either biotin-KRPPAVLL (control peptide; SEQ ID No 46) or biotin-KRPPYVLL (ITAM peptide; SEQ ID No 47) in concentration between 10-50 μM. Pull-downs were performed with Immobilized Neutravidin Protein (Pierce), as previously described. The resulting lysate pull-downs were run on SDS-PAGE were detected by Western blotting with rabbit anti-Syk antibody (N-19, Santa Cruz). Donkey anti-rabbit IgG-alkaline phosphatase conjugated antibody was used as a secondary antibody (Jackson ImmunoResearch Laboratories). For development and quantification, an ECF substrate was used followed by a scan using Storm 860 and analysis by ImageQuant 5.2 (all obtained from Amersham Biosciences).

Series [1] is described as follows: Water solubility of the ITAM fragment. Type of series: physicochemical.
The subject of series [2] is Env-expressing NMuMG cells. The series is described as follows: Three-dimensional Matrigel cultures of MMTV Env-expressing NMuMG cells (acinar structure morphology/size). Type of series: cell-based, murine. On the procedure: NMuMG cells (5×10^3 cells per chamber) were cultured on Matrigel® (BD Biosciences) cushions. Assay medium (DMEM/F12 supplemented with 2% donor horse serum, 10 μg/ml insulin, 1 ng/ml cholera toxin, 100 μg/ml hydrocortisone, 50 U/ml penicillin, and 50 μg/ml streptomycin) containing 2% Matrigel was replaced every 4 days. The structures were analyzed, at a magnification of 20, on a Zeiss Axiovert 200M equipped with PCO SensiCam video camera and Slidebook® software (Intelligent Imaging Innovations). Cell staining was performed with rat anti-human Keratin-18 (Lab Vision), rat anti-human E-cadherin and goat anti-rat IgG-FITC conjugated antibodies (Jackson ImmunoResearch Laboratories), or goat anti-rat IgG-Alexa-555 conjugated antibodies (Molecular Probes). Quantification of structure size was performed using a 10×50-μm grid reticule (Fisher Scientific) and 20-100 structures were counted from each chamber. The inhibitors PP2 and Piceatannol (EMD) were added on day 3 of culture, and pictures were taken on day 6. In apoptosis assays, TNF (R&D Systems) or TRAIL (BIOMOL Research Laboratories, Inc) were added on day 5 of culture, and pictures were taken on day 6. TUNEL assay was performed using a kit from Roche Applied Science (Indianapolis, Ind.).
NmuMG (wild-type or Env-expressing) or Mm5MT cells (10^4) were incubated on Matrigel (BD Labware) for six days, as described previously. Cells were treated with or without ITAM peptide (10 μM) or the Syk inhibitors piceatannol (1 μg/ml) and SI-31 (100 nM) (EMD). The acinar structures were analyzed and captured, at a magnification of 20×, on a Zeiss Axiovert 200M equipped with PCO SensiCam video camera and Slidebook v4 software (Intelligent Imaging Innovations). Three-dimensional structures >50 μm were considered enlarged. Data shown is based on size of 50 random acini.

The target of another series is T2, Syk-GFP (Mus musculus, UniProt P48025).
T2 construct: host or cells: Human 293T cells, transient transfection
Nature of the series: Co-localization of dsRed peptide chimeras with Syk-GFP in 293T cells by confocal microscopy. It counts as cell-based. The following applies: transiently transfected human 293T cells. The source says:
Peptide conjugates were produced by QuikChange XL® kit from Stratagene. The dsRed2-C1 construct (BD Clontech) was modified using the following primers: dsRed.YVLL: 5′-[…]-3′ (SEQ ID No 42); and 5′-[…]-3 (SEQ ID No 43).
dsRed.KRPPYVLL: 5′-[…]-3′ (SEQ ID No 44); and 5′-[…]-3′ (SEQ ID No 45). The Syk-eGFP construct was a provided by Dr. Robert Geahlen (Purdue University).
For laser scanning microscopy a Zeiss LSM510 META laser scanning confocal module on a Zeiss Axiovert 200M inverted microscope was used. Objective used: C-APO 40×/1.2 water DIC. Lasers: 488 nm laser line from Argon laser (30 mW) for eGFP excitation; 543 nm laser line from HeNe laser (1 mW) for dsRed excitation. Analysis was performed on Zeiss LSM510 META v3.2 software.

The test system of a further series is Mm5MT cells. The series is described as follows: Three-dimensional Matrigel cultures of MMTV+ Mm5MT tumor cells. It counts as cell-based. The following applies: for reversion to round 3D phenotype: six days. On the procedure: NmuMG (wild-type or Env-expressing) or Mm5MT cells (10^4) were incubated on Matrigel (BD Labware) for six days, as described previously. […] The acinar structures were analyzed and captured, at a magnification of 20×, on a Zeiss Axiovert 200M equipped with PCO SensiCam video camera and Slidebook v4 software (Intelligent Imaging Innovations). Three-dimensional structures >50 μm were considered enlarged. Data shown is based on size of 50 random acini.

Another series relates to RBL-2H3 cells. The series is described as follows: FcεR1-mediated degranulation of RBL-2H3 cells (hexosaminidase activity). Type of series: cell-based. To be noted: ITAM peptide 25 μM; anti-DNP IgE 1 μg/ml, DNP-HSA 10 ng/ml. As to the method:
The effect of ITAM peptide on mast cell function was evaluated by degranulation induced by FcεR1 cross-linking. RBL-2H3 cells (5×10^4) were incubated overnight with anti-DNP IgE (1 μg/ml). Subsequently, degranulation was induced with DNP-HSA (10 ng/ml, 2 h), in the presence or absence of ITAM peptide (25 μM). Degranulation, as detected by hexosaminidase activity, is depicted as percent of maximal activity obtained from whole cell lysates.

The test system of series [3] is ITAM-based BCR signaling (tyrosine phosphorylation) in splenic B cells. Nature of the series: Western blotting for tyrosine phosphorylation after anti-BCR stimulation. It counts as cell-based, mouse. On the procedure:
Splenic B cells (10^7) were pre-incubated with 0-100 μM ITAM peptide for 3 h at 37° C. and then stimulated with anti-BCR antibodies as above for further 5 min. Lysates (20 μg/lane) were run on SDS-PAGE, blotted and detected with anti-phosphotyrosine antibody (4G10-HRP; Upstate Biotech). Molecular weights shown are based on the molecular weight markers.
On the technique in general: In western blotting, separated proteins are transferred to a membrane and probed.

A further series deals with mouse splenic B cells. Nature of the series: B lymphocyte stimulation and proliferation ([3H] thymidine incorporation). Type of series: cell-based. The following applies: 20 μM peptide. As to the method: Proliferation of mouse splenic B cells: cells (5×10^5) were incubated for 48 h in the presence or absence of 20 μM peptide and stimulated with 10 μg/ml anti-BCR antibodies (Jackson ImmunoResearch Laboratories), LPS (Sigma) or anti-CD40 antibodies (BD Pharmingen). [^3H] Thymidine incorporation (1 μCi/well) was measured in the last 4 h of the experiment.
For orientation: Dividing cells build labelled thymidine or BrdU into new DNA.

Series [4] relates to NIH3T3 cells expressing the ITAM-containing MAHB chimera. Nature of the series: Soft agar colony formation assay of NIH3T3 cells expressing the ITAM-containing MAHB chimera. Type of series: cell-based, murine. As to the method: NIH3T3 cells expressing the ITAM-containing MAHB chimera (1×10^4) were suspended in 0.3% agar in DMEM containing 10% FBS. Cells from each transduction group were plated in 6-well plates pre-coated with 0.6% agar base in DMEM containing 10% FBS. Cells were fed with fresh top agar (0.3% agar in DMEM with 10% FBS, with or without ITAM peptide) every 5 days. Colonies were counted and measured using a graduated reticule under microscope at 10× magnification on day 21.

T2 sequence (P48025 whole entry): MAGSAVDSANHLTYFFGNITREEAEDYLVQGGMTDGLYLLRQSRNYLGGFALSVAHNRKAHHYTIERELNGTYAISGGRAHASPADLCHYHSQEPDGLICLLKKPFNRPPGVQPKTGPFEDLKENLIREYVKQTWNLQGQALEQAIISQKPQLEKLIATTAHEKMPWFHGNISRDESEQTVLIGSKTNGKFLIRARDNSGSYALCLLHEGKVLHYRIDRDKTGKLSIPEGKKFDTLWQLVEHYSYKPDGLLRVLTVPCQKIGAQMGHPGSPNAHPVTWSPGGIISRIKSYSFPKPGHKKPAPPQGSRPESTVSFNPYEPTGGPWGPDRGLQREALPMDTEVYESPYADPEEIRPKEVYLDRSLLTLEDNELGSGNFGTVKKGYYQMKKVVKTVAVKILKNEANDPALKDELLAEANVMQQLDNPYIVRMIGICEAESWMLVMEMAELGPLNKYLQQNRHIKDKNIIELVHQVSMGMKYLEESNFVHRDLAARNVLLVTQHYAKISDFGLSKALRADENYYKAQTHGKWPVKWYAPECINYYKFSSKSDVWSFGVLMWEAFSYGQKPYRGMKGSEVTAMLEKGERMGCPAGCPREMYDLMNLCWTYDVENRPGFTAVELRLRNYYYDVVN
T1 sequence (P48025 whole entry): as above

In the case of Biotin-KRPPYVLL, the “Syk detected in pull-down, over control peptide biotin-KRPPAVLL” value at Syk was 1.5- to 2 fold.

As to Ac-KRPPYVLL [KRPPYVLL], the water solubility entry in [1] is recorded as “water-soluble”.

With `CC(C)(C)n1nc(-c2ccc(Cl)cc2)c2c(N)ncnc21` [PP2], in [2] (Env+ NMuMG 3D cultures, inhibitor 500 ng/ml added on day 3, imaged on day 6), the “morphological changes associated with Env transformation” value is listed as “sufficient to block morphological changes associated with Env transformation”. For the same compound, the “phenotypic reversal of transformed phenotype to normal round acini” value (shortened to “phenotypic reversal”) in series [2] (Src inhibitor PP2, concentration not printed for this experiment) is “effective in phenotypic reversal”.

Take “dsRed.KRPPYVLL: dsRed chimera protein with the entire 8 amino acid ITAM fragment (dsRed-KRPPYVLL)”: the “co-localization with Syk-GFP” value with Syk-GFP is on record as “co-localization was still detected”.

With `Cn1cc(C=C2C(=O)Nc3ccc(S(N)(=O)=O)cc32)c2ccccc21` [SI-31, reference compound], the “phenotypic reversal” value in series [2] (SI-31 100 nM, six days) is on record as “effective in phenotypic reversal”. Moreover, in the series on Mm5MT cells (SI-31 100 nM), the “reversion to round 3D phenotype” value was “readily apparent”.

Take “dsRed.YVLL: dsRed chimera protein with 4 amino acids (YVLL) of the ITAM fragment (dsRed-YVLL)”: in the series with Syk-GFP, the “co-localization with Syk-GFP” value is given as “co-localization was readily observed”.

For Ac-KRPPYVLL-OH [ITAM peptide], the “FcεRI-induced degranulation (hexosaminidase activity)” value in the series with RBL-2H3 cells is on record as “significantly inhibited; also recorded: significant reduction (p=0.093)”. In addition, in [2] (ITAM peptide 10 μM, Env-expressing NMuMG on Matrigel six days), the “phenotypic reversal” value is “as effective in phenotypic reversal as the Src inhibitor PP2 and Syk inhibitors Piceatannol and SI-31”. The “tyrosine phosphorylation associated with ITAM-based BCR signaling” value in series [3] (higher concentrations of the peptide) was “neither stimulatory nor inhibitory”; in series [3] (relevant peptide concentrations (0-100 μM tested), 3 h pre-incubation, anti-BCR 5 min, data not shown) it was “visibly reduced; also recorded: Inhibition of tyrosine phosphorylation was confirmed”. For the same compound, the “BCR-induced proliferation ([3H] thymidine incorporation)” value with mouse splenic B cells (48 h, 10 μg/ml anti-BCR antibodies) is recorded as “inhibition of BCR-induced proliferation; also recorded: highly significant (p=0.0017)”. Besides, in the series with mouse splenic B cells (LPS 20 μg/ml, data not shown), the “stimulation of B lymphocytes by LPS (non-ITAM)” value was “no significant effect”. For the same compound, in the series on mouse splenic B cells (anti-CD40 5 μg/ml, data not shown), the “stimulation of B lymphocytes through CD40 (non-ITAM)” value is listed as “no significant effect”. Further, the “size and number of colonies formed” value in series [4] (ITAM peptide 0-20 μM added with feeding media, colonies >75 μm scored on day 21) is “reduction in both size and number of colonies formed”. Moreover, the “colony formation of ITAM+ fibroblasts” value in series [4] (chronic treatment with ITAM peptide in feeding media) is “sufficient to reduce colony formation”. In addition, the Mm5MT acini phenotype entry in the series with Mm5MT cells (3D cultures on Matrigel six days, treated with ITAM peptide, Src or Syk inhibitors) is “exhibited a more round phenotype”. Moreover, in the series on Mm5MT cells (ITAM peptide 20 μM (5-20 μM tested)), the “reversion to round 3D phenotype” value is on record as “readily apparent”.
